Like-named read-outs stand apart in the source and are kept apart here.
Experiments:
[1] = target: FGFR3-BAIAP2L1 Ba/F3 cells (Homo sapiens, UniProt P22607); test: Ba/F3 cell viability assay (CellTiter-Glo 2.0), FGFR3-BAIAP2L1 Ba/F3; type: cell-based
How it was run: (§1)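 IL3-independent Ba/F3 lines driven by FGFR1-BCR or FGFR3-BAIAP2L1 fusions, in RPMI1640/10% FBS. 9-dose 10-fold series from 30 μM, triplicate, 48 h at 37 °C; viability by CellTiter-Glo 2.0 ATP luminescence relative to DMSO control, IC50 from 4-parameter sigmoidal fit.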

[2] = target: FGFR1-BCR Ba/F3 cells (Homo sapiens, UniProt P11362); test: Ba/F3 cell viability assay (CellTiter-Glo 2.0), FGFR1-BCR Ba/F3; type: cell-based
FGFR1-BCR Ba/F3 cells, sequence (P11362 22-822 limits assumed, change not shown): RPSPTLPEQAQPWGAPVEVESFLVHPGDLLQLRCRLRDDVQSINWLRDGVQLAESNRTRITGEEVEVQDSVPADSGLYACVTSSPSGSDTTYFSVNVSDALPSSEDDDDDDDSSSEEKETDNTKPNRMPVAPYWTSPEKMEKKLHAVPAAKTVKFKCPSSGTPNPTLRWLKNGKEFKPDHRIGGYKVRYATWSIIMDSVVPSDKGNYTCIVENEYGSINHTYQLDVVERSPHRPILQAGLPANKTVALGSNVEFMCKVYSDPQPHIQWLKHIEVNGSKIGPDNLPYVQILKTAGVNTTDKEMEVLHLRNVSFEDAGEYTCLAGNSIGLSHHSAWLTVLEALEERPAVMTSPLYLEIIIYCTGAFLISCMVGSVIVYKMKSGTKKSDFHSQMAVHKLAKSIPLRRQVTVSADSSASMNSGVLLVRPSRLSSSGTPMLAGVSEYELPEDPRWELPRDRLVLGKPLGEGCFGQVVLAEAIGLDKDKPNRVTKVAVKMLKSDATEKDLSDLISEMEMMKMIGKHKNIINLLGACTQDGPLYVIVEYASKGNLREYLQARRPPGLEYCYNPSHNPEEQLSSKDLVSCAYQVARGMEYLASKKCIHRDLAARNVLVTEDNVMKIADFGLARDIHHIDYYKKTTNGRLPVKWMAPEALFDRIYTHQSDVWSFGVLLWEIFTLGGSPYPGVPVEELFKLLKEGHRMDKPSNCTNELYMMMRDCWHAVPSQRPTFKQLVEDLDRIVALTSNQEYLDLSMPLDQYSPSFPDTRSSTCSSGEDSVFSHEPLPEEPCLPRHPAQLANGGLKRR
How it was run: as §1

[3] = system: RT112/84 cells (FGFR3-fusion); test: RT112/84 cancer cell line cell viability assay (CellTiter-Glo 2.0); type: cell-based; conditions: Homo sapiens, 72 hours, Cell Titer Glo 2.0
How it was run: (§2)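 RT112/84, UM-UC-14 and KG-1 cells (10,000/well, RPMI1640 with 10% FBS) were treated with a 9-dose, 10-fold series starting at 30 μM, in triplicate, for 72 h at 37 °C. ATP was read by CellTiter-Glo 2.0 luminescence relative to DMSO controls, and IC50 was fitted with a 4-parameter sigmoidal model.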

[4] = system: UM-UC-14 cells (FGFR3(S249C)); test: UM-UC-14 cancer cell line cell viability assay (CellTiter-Glo 2.0); type: cell-based; conditions: UMUC14, 72 hours, Cell Titer Glo 2.0
From the text: Experimental Purpose: To detect the change of intracellular ATP by Cell Titer-Glo® and to evaluate the inhibitory effect of the compounds on cancer cell lines by determining the in vitro IC50 value of the compounds.
Cell Titer-Glo® 2.0 Luminescent cell viability assay reagent was purchased from Promega (Madison, WI). RT112/84 and KG-1 cell lines were purchased from American Type Culture Collection (Manassas, VA). UM-UC-14 cell line was purchased from Sigma (St. Louis, MO). RT112/84, UM-UC-14, and KG-1 cells were cultured in RPMI1640 media supplemented with 10% fetal bovine serum. Cultures were maintained at 37° C. in a humidified atmosphere of 5% C02 and 95% air.
Cell Viability Assay Procedure: Cells were plated in 96-well clear bottom/white plates (Corning #3903) at 10,000 cells/well in 100 μl of media, incubated overnight. The next day, test compound DMSO stock solutions were made at 10 mM and 2 μM final concentration. Compounds were then added to cells in a 9-dose, 10-fold dilution series starting at 30 μM with an HP 300e Digital Dispenser (each dose was applied in triplicate). DMSO was backfilled to each well up to 301 nL total volume of test compound+DMSO, and a total of 301 nL DMSO was added to a control/no test compound well in triplicate. The cells in cell culture plates were incubated with the compounds at 37° C. and 5% C02 for 72 hours. Then 50 μl of Cell Titer Glo 2.0 reagent was added to each well of the cell culture plates. The contents were covered from light and mixed on an orbital shaker at room temperature for 10 min. Luminescence was recorded by a Synergy H1 Microplate Reader (Biotek, Winooski, VT). Cells were assessed as a percentage of DMSO only treated control cells. Curves were plotted and IC50 values were calculated using the GraphPad Prism 8 program based on a sigmoidal dose-response equation (4 parameter).

[5] = system: KG-1 cells (FGFR1-fusion); test: KG-1 cancer cell line cell viability assay (CellTiter-Glo 2.0); type: cell-based; conditions: Homo sapiens, 72 hours, Cell Titer Glo 2.0
How it was run: as §2

[6] = target: FGFR1 (Homo sapiens (Human), UniProt P11362); test: Kinase assay, binding constants (Kd), kinase-tagged T7 phage, qPCR
FGFR1, sequence (P11362 22-822): as the sequence (P11362 22-822 limits assumed, change not shown) above
How it was run: (§3)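 Competition binding: kinase-tagged T7 phage lysates mixed with immobilized biotinylated ligand on streptavidin beads plus compound (11-point 3-fold dilution series, 0.9% DMSO final). Bound kinase eluted with free ligand and quantified by qPCR. Kd from Hill equation fit, slope fixed at −1.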

[7] = target: FGFR2 (Homo sapiens (Human), UniProt P21802); test: as above
FGFR2, sequence (P21802 22-821): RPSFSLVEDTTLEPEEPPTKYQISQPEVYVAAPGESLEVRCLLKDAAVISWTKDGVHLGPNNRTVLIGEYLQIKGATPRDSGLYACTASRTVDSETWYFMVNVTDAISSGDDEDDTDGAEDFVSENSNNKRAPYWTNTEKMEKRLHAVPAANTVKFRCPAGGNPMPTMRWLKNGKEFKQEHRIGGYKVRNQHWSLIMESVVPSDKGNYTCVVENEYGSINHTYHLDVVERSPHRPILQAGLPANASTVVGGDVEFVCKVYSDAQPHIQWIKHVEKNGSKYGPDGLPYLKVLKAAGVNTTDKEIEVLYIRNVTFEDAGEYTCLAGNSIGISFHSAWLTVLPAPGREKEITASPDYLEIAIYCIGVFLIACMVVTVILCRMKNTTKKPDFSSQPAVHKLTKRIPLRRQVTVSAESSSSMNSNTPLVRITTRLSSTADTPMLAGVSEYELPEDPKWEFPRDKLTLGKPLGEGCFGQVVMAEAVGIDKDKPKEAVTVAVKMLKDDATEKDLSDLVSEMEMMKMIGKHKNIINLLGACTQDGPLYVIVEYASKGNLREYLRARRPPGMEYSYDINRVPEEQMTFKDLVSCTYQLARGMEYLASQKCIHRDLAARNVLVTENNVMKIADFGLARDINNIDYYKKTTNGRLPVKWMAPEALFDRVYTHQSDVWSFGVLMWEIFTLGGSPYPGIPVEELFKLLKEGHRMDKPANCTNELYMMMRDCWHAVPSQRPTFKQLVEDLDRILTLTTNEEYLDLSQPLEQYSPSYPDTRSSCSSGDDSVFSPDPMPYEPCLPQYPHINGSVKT
How it was run: as §3

[8] = target: FGFR3 (Homo sapiens (Human), UniProt P22607); test: as above
FGFR3, sequence (P22607 23-806): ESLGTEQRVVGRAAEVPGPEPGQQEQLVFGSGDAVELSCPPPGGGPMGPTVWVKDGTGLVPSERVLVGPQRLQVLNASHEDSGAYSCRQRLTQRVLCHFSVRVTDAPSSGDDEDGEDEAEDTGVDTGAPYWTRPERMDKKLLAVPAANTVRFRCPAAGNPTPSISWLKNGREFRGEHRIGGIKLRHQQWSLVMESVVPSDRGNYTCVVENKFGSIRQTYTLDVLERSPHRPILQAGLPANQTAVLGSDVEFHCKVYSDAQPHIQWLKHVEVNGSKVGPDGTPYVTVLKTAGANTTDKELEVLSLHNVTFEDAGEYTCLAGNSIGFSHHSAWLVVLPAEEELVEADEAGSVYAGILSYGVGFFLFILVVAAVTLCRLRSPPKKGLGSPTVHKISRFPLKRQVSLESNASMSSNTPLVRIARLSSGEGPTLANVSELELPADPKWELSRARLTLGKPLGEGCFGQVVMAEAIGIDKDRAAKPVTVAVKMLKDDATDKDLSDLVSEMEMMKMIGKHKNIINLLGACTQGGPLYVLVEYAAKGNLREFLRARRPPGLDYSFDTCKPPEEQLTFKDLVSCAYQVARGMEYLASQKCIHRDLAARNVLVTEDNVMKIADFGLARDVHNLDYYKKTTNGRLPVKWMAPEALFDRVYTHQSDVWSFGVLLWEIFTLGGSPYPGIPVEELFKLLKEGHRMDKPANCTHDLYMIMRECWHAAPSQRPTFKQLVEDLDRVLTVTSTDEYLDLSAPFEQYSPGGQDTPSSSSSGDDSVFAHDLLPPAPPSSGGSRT
How it was run: as §3

[9] = target: FGFR3 (V555M) (Homo sapiens (Human), UniProt P22607, V555M); test: as above; conditions: V555M mutant
FGFR3 (V555M), sequence (P22607 23-806 V555M): as the sequence (P22607 23-806) above, with V533M counted along it
How it was run: as §3

[10] = target: FGFR4 (Homo sapiens (Human), UniProt P22455); test: as above
FGFR4, sequence (P22455 22-802): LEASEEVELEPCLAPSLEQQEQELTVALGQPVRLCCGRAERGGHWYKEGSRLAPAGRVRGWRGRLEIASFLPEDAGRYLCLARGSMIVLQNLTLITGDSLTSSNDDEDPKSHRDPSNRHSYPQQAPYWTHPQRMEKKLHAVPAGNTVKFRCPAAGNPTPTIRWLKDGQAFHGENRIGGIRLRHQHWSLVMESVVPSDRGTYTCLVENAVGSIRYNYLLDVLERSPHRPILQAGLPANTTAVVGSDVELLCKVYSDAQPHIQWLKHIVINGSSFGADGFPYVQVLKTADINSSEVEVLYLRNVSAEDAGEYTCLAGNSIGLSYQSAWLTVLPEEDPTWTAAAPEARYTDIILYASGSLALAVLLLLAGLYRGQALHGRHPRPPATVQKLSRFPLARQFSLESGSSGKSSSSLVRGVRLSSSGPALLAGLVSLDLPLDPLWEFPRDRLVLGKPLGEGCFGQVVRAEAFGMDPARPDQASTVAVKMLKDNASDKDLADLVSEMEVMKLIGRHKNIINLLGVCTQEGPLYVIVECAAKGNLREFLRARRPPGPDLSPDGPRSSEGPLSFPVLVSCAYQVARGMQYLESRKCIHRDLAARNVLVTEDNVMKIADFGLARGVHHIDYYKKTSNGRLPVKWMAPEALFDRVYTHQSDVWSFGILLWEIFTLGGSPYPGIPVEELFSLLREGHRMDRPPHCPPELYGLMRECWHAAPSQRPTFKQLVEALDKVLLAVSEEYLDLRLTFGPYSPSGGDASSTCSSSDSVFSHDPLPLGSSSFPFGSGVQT
How it was run: as §3

[11] = FGFR3 > FGFR1 selectivity ratio in Ba/F3 FGFR fusion cell based assays
[12] = read-out: Ba/F3 Cells FGFR3 (IC50 nM); FGFR3-BAIAP2L1 Ba/F3 cells, 48 hours, Cell Titer Glo 2.0
[13] = read-out: Ba/F3 Cells FGFR1 (IC50 nM), 48 hours, Cell Titer Glo 2.0

FGFR3-BAIAP2L1 Ba/F3 cells, sequence (P22607 23-806 limits assumed, change not shown): as the sequence (P22607 23-806) above

| Structure (SMILES) | Ba/F3 FGFR1/FGFR3 Selectivity [1, 11] | IC50 [1, 12] | IC50 [2, 13] | IC50 [3] | IC50 [4] | IC50 [5] | Kd [6] | Kd [7] | Kd [8] | Kd [9] | Kd [10] | IC50 ([1]; FGFR3-BAIAP2L1 Ba/F3 cells, 48 hours, Cell Titer Glo 2.0; read-out: Ba/F3 Cells FGFR3 (IC50 nM)) | IC50 ([2]; 48 hours, Cell Titer Glo 2.0, read-out: Ba/F3 Cells FGFR1 (IC50 nM)) |
| --- | --- | --- | --- | --- | --- | --- | --- | --- | --- | --- | --- | --- | --- |
| C[C@@H](Oc1ccc2[nH]nc(-c3ccc(N4CCN(C(=O)N5CCN(C)CC5)CC4)nc3)c2c1)c1c(Cl)cncc1Cl [Example 4, [4-[5-[5-[(1R)-1-(3,5-dichloro-4-pyridyl)ethoxy]-1H-indazol-3-yl]-2-pyridyl]piperazin-1-yl]-(4-methylpiperazin-1-yl)methanone] | 29 | 1 to 20 nM | 100 to 300 nM | 1 to 20 nM | 1 to 20 nM | 20 to 100 nM | 1 to 20 nM | 1 to 20 nM | 1 to 20 nM | 1 to 20 nM | 1 to 20 nM | – | – |
| C[C@@H](Oc1ccc2[nH]nc(-c3ccc(N4CCN(C(=O)N(C)C)CC4)nc3)c2c1)c1c(Cl)cncc1Cl [Example 5, 4-[5-[5-[(1R)-1-(3,5-dichloro-4-pyridyl)ethoxy]-1H-indazol-3-yl]-2-pyridyl]-N,N-dimethyl-piperazine-1-carboxamide] | 22 | 1 to 20 nM | 100 to 300 nM | 1 to 20 nM | 1 to 20 nM | 20 to 100 nM | 1 to 20 nM | 1 to 20 nM | 1 to 20 nM | 1 to 20 nM | 1 to 20 nM | – | – |
| C[C@@H](Oc1ccc2[nH]nc(-c3ccc(N4CCN(S(C)(=O)=O)CC4)nc3)c2c1)c1c(Cl)cncc1Cl [Example 6, 5-[(1R)-1-(3,5-dichloro-4-pyridyl)ethoxy]-3-[6-(4-methylsulfonyl-piperazin-1-yl)-3-pyridyl]-1H-indazole] | 13 | 1 to 20 nM | 20 to 100 nM | 1 to 20 nM | 1 to 20 nM | 20 to 100 nM | 1 to 20 nM | 20 to 100 nM | 1 to 20 nM | 1 to 20 nM | 1 to 20 nM | – | – |
| C[C@@H](Oc1ccc2[nH]nc(-c3ccc(N4CCN(S(=O)(=O)N5CCN(C)CC5)CC4)nc3)c2c1)c1c(Cl)cncc1Cl [Example 8, 5-[(1R)-1-(3,5-dichloro-4-pyridyl)ethoxy]-3-[6-[4-(4-methylpiperazin-1-yl)sulfonylpiperazin-1-yl]-3-pyridyl]-1H-indazole] | 16 | 1 to 20 nM | 100 to 300 nM | 1 to 20 nM | 1 to 20 nM | 100 to 300 nM | 20 to 100 nM | 20 to 100 nM | 1 to 20 nM | 1 to 20 nM | 1 to 20 nM | – | – |
| CCC(=O)N1CCN(c2ccc(-c3n[nH]c4ccc(O[C@H](C)c5c(Cl)cncc5Cl)cc34)cn2)CC1 [Example 9, 1-[4-[5-[5-[(1R)-1-(3,5-dichloro-4-pyridyl)ethoxy]-1H-indazol-3-yl]-2-pyridyl]piperazin-1-yl]propan-1-one] | 19 | 1 to 20 nM | 100 to 300 nM | 1 to 20 nM | 1 to 20 nM | 20 to 100 nM | 1 to 20 nM | 1 to 20 nM | 1 to 20 nM | 1 to 20 nM | 1 to 20 nM | – | – |
| C[C@@H](Oc1ccc2[nH]nc(-c3cnc(N4CCNCC4)c(F)c3)c2c1)c1c(Cl)cncc1Cl [Example 10, 5-[(1R)-1-(3,5-Dichloro-4-pyridyl)ethoxy]-3-(5-fluoro-6-piperazin-1-yl-3-pyridyl)-1H-indazole] | 9 | 1 to 20 nM | 20 to 100 nM | 1 to 20 nM | 1 to 20 nM | 20 to 100 nM | 1 to 20 nM | 1 to 20 nM | 1 to 20 nM | 1 to 20 nM | 1 to 20 nM | – | – |
| C[C@@H](Oc1ccc2[nH]nc(-c3cnc(N4CCNCC4)nc3)c2c1)c1c(Cl)cncc1Cl [Example 11, 5-[(1R)-1-(3,5-dichloro-4-pyridyl)ethoxy]-3-(2-piperazin-1-ylpyrimidin-5-yl)-1H-indazole] | 9 | 1 to 20 nM | 100 to 300 nM | 1 to 20 nM | 20 to 100 nM | 20 to 100 nM | 1 to 20 nM | 1 to 20 nM | 1 to 20 nM | 1 to 20 nM | 1 to 20 nM | – | – |
| C[C@@H](Oc1ccc2[nH]nc(-c3ccc(N4CCN(C(N)=O)CC4)nc3)c2c1)c1c(Cl)cncc1Cl [Example 12, 4-[5-[5-[(1R)-1-(3,5-dichloro-4-pyridyl)ethoxy]-1H-indazol-3-yl]-2-pyridyl]piperazine-1-carboxamide] | 19 | 1 to 20 nM | 100 to 300 nM | 1 to 20 nM | 1 to 20 nM | 20 to 100 nM | 1 to 20 nM | 1 to 20 nM | 1 to 20 nM | 1 to 20 nM | 1 to 20 nM | – | – |
| C[C@@H](Oc1ccc2[nH]nc(-c3cnc(N4CCN(C(=O)N5CCN(C)CC5)CC4)c(F)c3)c2c1)c1c(Cl)cncc1Cl [Example 13, [4-[5-[5-[(1R)-1-(3,5-Dichloro-4-pyridyl)ethoxy]-1H-indazol-3-yl]-3-fluoro-2-pyridyl]piperazin-1-yl]-(4-methylpiperazin-1-yl)methanone] | 11 | 20 to 100 nM | 100 to 300 nM | 1 to 20 nM | 20 to 100 nM | 20 to 100 nM | 1 to 20 nM | 1 to 20 nM | 1 to 20 nM | 1 to 20 nM | 1 to 20 nM | – | – |
| C[C@@H](Oc1ccc2[nH]nc(-c3cnc(N4CCN(S(C)(=O)=O)CC4)nc3)c2c1)c1c(Cl)cncc1Cl [Example 14, 5-[(1R)-1-(3,5-Dichloro-4-pyridyl)ethoxy]-3-[2-(4-methylsulfonylpiperazin-1-yl)pyrimidin-5-yl]-1H-indazole] | 18 | 1 to 20 nM | > 300 nM | 1 to 20 nM | 20 to 100 nM | 100 to 300 nM | 1 to 20 nM | 20 to 100 nM | 1 to 20 nM | 1 to 20 nM | 1 to 20 nM | – | – |
| C[C@@H](Oc1ccc2[nH]nc(-c3cnc(N4CCN(C(=O)N5CCN(C)CC5)CC4)nc3)c2c1)c1c(Cl)cncc1Cl [Example 15, [4-[5-[5-[(1R)-1-(3,5-dichloro-4-pyridyl)ethoxy]-1H-indazol-3-yl]pyrimidin-2-yl]piperazin-1-yl]-(4-methylpiperazin-1-yl)methanone] | 10 | 20 to 100 nM | > 300 nM | 1 to 20 nM | 1 to 20 nM | 20 to 100 nM | 1 to 20 nM | 1 to 20 nM | 1 to 20 nM | 1 to 20 nM | 1 to 20 nM | – | – |
| C[C@@H](Oc1ccc2[nH]nc(-c3ccc(N4CC5CC(C4)N5)nc3)c2c1)c1c(Cl)cncc1Cl [Example 16, 3-[6-(3,6-Diazabicyclo[3.1.1]heptan-3-yl)-3-pyridyl]-5-[(1R)-1-(3,5-dichloro-4-pyridyl)ethoxy]-1H-indazole] | 14 | – | – | 1 to 20 nM | 1 to 20 nM | 20 to 100 nM | 1 to 20 nM | 1 to 20 nM | 1 to 20 nM | 1 to 20 nM | 1 to 20 nM | 20 to 100 nM | > 300 nM |

— US20240109865A1, “INDAZOLE COMPOUNDS AS KINASE INHIBITORS” (TYRA BIOSCIENCES, INC., priority 2020, published 2024)
